Patent US11926679B2, “Oligopeptide search method, oligopeptide, modified peptide, and immunoassay method” (ZEON CORPORATION, priority 2016, dated 2024)

Columns and labels:
[1] = Adsorption of antigen to multi-well plate, 1060R plate; assay type: binding; conditions: FIG. 6
Excerpt: (§1) The condition for adsorption of an antigen to a multi-well plate was examined. A comparison of adsorption of an antigen was made by using a 96-well plate obtained by injection molding of a hydride of a norbornene-based ring-opened polymer [Zeonor® 1060R, manufactured by Zeon Corporation] (hereinafter referred to as a “1060R plate”) and a 96-well plate made of polystyrene (product name “SUMILON® (SUMILON is a registered trademark in Japan, other countries, or both) ELISA Plate H”, manufactured by Sumitomo Bakelite Co., Ltd.; hereinafter referred to as a “PS plate”).
(§2) A peptide in which the amino acid sequence of […](SEQ ID NO: 7) that has the property of specifically attaching to a norbornene-based polymer is bound to the N terminal of the amino acid sequence of Cys-Lys-Val-Leu-Arg-Arg-His (SEQ ID NO: 6) of the antibody recognition site of the human BNP (brain natriuretic peptide) (hereinafter referred to as a “synthetic BNP antigen”) was synthesized. […]
(§3) Then, the synthetic BNP antigen immobilized in the plate was allowed to develop a color using a coloring reagent (manufactured by NACALAI TESQUE, INC., product name “ELISA POD Substrate TMB Solution”), and quenched with a dilute sulfuric acid, followed by measuring the absorbance at 450 nm by an absorbance plate reader.

[2] = Adsorption of antigen to multi-well plate, PS plate; assay type: binding; conditions: FIG. 6
Excerpt: as §1, §2, §3

[3] = tested on: CHO (Chinese Hamster Ovary) cells; assay: CHO cell shape on polypeptide-coated 1060R plate; assay type: cell-based; conditions: microscope, 5 hours after the start of culture, serum-free medium, coating 10 μg/ml
Experimental: Each of the solutions which this Polypeptide 3 and Polypeptide 2 obtained in Example 2 were dissolved in PBS in a concentration of 10 μg/ml respectively was filter-sterilized. To an EOG-sterilized 1060R plate, 50 μL per well of each of the resultant solution was added. The plates were allowed to stand at room temperature (25° C.) for 1 hour.
After allowed to stand, each of the 1060R plates incubated with Polypeptide 3 and Polypeptide 2 obtained in Example 2 was washed three times with sterilized PBS to obtain a Polypeptide 3-coated 1060R plate and a Polypeptide 2-coated 1060R plate.
To wells of the two plates thus obtained and a 1060R plate that was not coated with a polypeptide, CHO (Chinese Hamster Ovary) cells suspended in a serum-free medium (serum free medium ESF SFM Serum⋅Free Medium for Hybridoma, CHO & 293 Cells, manufactured by Expression Systems, LLC) were added and maintained the culture in a CO2 incubator at 37° C.

[4] = Phage display peptide library search on norbornene-based polymer culture dish; assay type: binding; conditions: tertiary phage solutions; washes with PBS, Glycine HCl pH 2, Glycine NaOH pH 10, then PBS containing 10% DMSO
Experimental: As a phage display peptide library, Ph.D.-C7C Phage Display Peptide Library Kit (manufactured by New England Biolabs Japan Inc.) was used.
The phage solution was dissolved in a phosphate buffer (PBS; a mixed solution of 137 mmol/l NaCl, 8.1 mmol/l Na2HPO4, 2.68 mmol/l KCl, and 1.47 mmol/l KH2PO4, pH 7.4) to give a peptide library.
Thereafter, the bottom of the culture dish was washed three times with PBS.
Subsequently, it was washed once with 40 mM Glycine HCl Buffer (pH 2.2) adjusted to pH 2, and further, 40 mM Glycine NaOH (pH 10) adjusted to pH 10 was added dropwise to it.
The dropped solution was collected, and the pH was immediately neutralized with a dilute hydrochloric acid (pH=7.0) to obtain a “phage solution washed with an alkali and collected”.
Subsequently, a PBS containing 10% DMSO was added dropwise to the bottom of the culture dish, and the dropped solution was collected to obtain a “phage solution washed with DMSO and collected.” […]
The gene sequences of the phages contained in the two phage solutions obtained by acquisition of the tertiary phage solutions were read to obtain corresponding amino acid sequences.

[5] = Blocking effect against non-specific adsorption of antibody, PS plate; conditions: containing no protein, FIG. 8
Excerpt: (§4) The container on which the synthetic BNP antigen was immobilized was blocked in the same manner as in Example 5, using a phosphate buffered saline containing 10% blocking agent (manufactured by NACALAI TESQUE, INC., product name “Blocking One”) containing a widely used casein (“Blocking One having a final concentration of 10%”), a phosphate buffered saline containing 0.05% Tween® 20 (“Tween® 20 PBS having a final concentration of 0.05%”), and a phosphate buffered saline containing 0.2% Tween® 20 (“Tween® 20 PBS having a final concentration of 0.2%”) as blocking agents, and compared to the condition without the blocking treatment.
(§5) As microwell plates, the 1060R plate (experimental example) and the PS plate (comparative example) were used. […]
(§6) After the resultant was allowed to stand, the solution in the wells was removed, followed by washing three times with a phosphate buffered saline containing 0.05% Tween® 20. […] After adding 0.1 M sulfuric acid as a stop solution, the absorbance at 450 nm was measured with a light absorption plate reader.
(§7) The value for each condition was determined using the relative value to the measured absorbance value of the well that was not subjected to blocking in the 1060R plate.

[6] = Blocking effect against non-specific adsorption of antibody, 1060R plate; conditions: solution containing no protein, 0.05% or 0.2% in PBS, FIG. 8
Excerpt: as §4, §5, §6, §7

[7] = Evaluation of adhesiveness to the container (anti-6-His detection, absorbance at 450 nm); assay type: binding
Experimental: Polypeptide 1, Polypeptide 2, and a human normal IgG antibody (manufactured by Wako Pure Chemical Industries, Ltd.) were dissolved in a PBS solution and 10% DMSO in PBS (10% DMSO PBS) each in a concentration of 10 μg/ml to give various solutions.
To a 96-well plate obtained by injection molding of a hydride of a norbornene-based ring-opened polymer [Zeonor® 1060R, manufactured by Zeon Corporation] (hereinafter referred to as a “1060R plate”) and a 96-well plate made of polystyrene (product name “Falcon® (Falcon is a registered trademark in Japan, other countries, or both)”, manufactured by Corning Incorporated; hereinafter referred to as a “TCPS plate”), each of the polypeptide solutions prepared above was added in an amount of 50 μL/well (N=3) and the plates were allowed to stand at room temperature (25° C.) for 1 hour.
After allowed to stand, the insides of the wells of the 1060R plate and the TCPS plate were washed three times with T-TBS (0.05 m Tris hydrochloric acid, 0.15 m sodium chloride, 0.05% Tween® 20; pH 7.6). […]
For the wells of each plate, the absorbance at 450 nm was measured using a well plate reader apparatus (manufactured by CORONA ELECTRIC Co., Ltd.).

synthetic BNP antigen: peptide in which SEQ ID NO: 7 (norbornene polymer-attaching sequence) is bound to the N terminal of SEQ ID NO: 6, antibody recognition site of human BNP (ACTVDSCLTCGGGGGSSSGLGCKVLRRH)
attachment of antigen to the plate (absorbance at 450 nm) [1]: attached | attachment of antigen to the plate (absorbance at 450 nm) [2]: not attached

ACTVDSCLTCGGGGGRGDSPHHHHHH [Polypeptide 3]
shape of CHO cells on coated 1060R plate [3]: shapes in which the cells were stretched

TVDNSLA [Thr-Val-Asp-Asn-Ser-Leu-Ala]
adhesion/elution behaviour of the amino acid sequence on the norbornene-based polymer dish [4]: eluting at a high pH

polyoxyethylene sorbitan monolaurate [Tween® 20]
blocking effect (relative absorbance at 450 nm) [5]: a blocking effect was lower as compared to a blocking agent containing a protein | blocking effect (relative absorbance at 450 nm) [6]: a blocking effect was observed

TVDSCLT [Thr-Val-Asp-Ser-Cys-Leu-Thr]
adhesion/elution behaviour of the amino acid sequence on the norbornene-based polymer dish [4]: continued to adhere even after washed with an alkali and was eluted with an organic solvent

ACTVDSCLTCGGGGGHHHHHH [Polypeptide 2]
shape of CHO cells on coated 1060R plate [3]: rounded shapes | absorbance at 450 nm of the 1060R plate compared with the TCPS plate ([7]; 10 μg/ml polypeptide, 1 hour at room temperature, FIG. 2): higher than that of the TCPS plate | adhesiveness to a norbornene-based polymer ([7]; conclusion from FIG. 2): high adhesiveness
